Assay results from patent US20020137901A1, “Synthesis, and photodynamic therapy-mediated anti-cancer, and other uses of chlorin e6-transferrin” (priority 2001, published 2002).

How the values were obtained:
MTLn3 cells [1] = test: Transferrin competition of cell killing; type: cell-based, rat; details: MTLn3, 30 ug/ml Ce6Tf plus 500 or 1,000 μg/ml native Tf, light
Method: (§1) FIG. 8. A: Effect of Ce6 alone on the viability of Rat MTLn3 cells. Cells were tested as per method B outlined in the cell killing procedure description. Confluent cells in ∝MEM containing 5% FBS were exposed to the indicated concentrations of Ce6, Ce6-Tf, or Tf alone. One day later, media was changed to that without added Ce6-Tf or Tf, and all cells were exposed to light for 15 min. This was repeated on days two and three. Cells were then fixed and stained with Coomassie blue. An image of the stained wells is shown. […] B: Effect of excess Tf on the killing effect of Ce6-Tf Cells were set up similarly as above, except that treatments consisted of Ce6-Tf, or Ce6-Tf in conjunction with 500 or 1,000 μg/ml native Tf. Light exposure, media changes, and cell staining were carried out as in A. An image of the stained wells is shown.
Transferrin competition of cell killing: These were performed to ensure that Ce6-Tf's cell killing effect was due to the function of the transferrin ligand: that the light-induced killing effect could be neutralized with excess native Tf Method B. from above was used. Confluent cultures of MTLn3 cells in 24 well plates were treated with 30 ug/ml of Ce6Tf. […] Light-induced killing assays were continued and cells quantitated as stated above in method B.

MTLn3 cells [2] = test: Cell killing assay, protocol B (serum-containing, one-day exposure); type: cell-based, rat
Method: (§2) FIG. 6. […] This was a one-day exposure, serum-containing assay performed using protocol B described in the cell killing section. Cells were plated in 24 well plates and grown to confluency. On day one, media was changed and increasing levels of Ce6-Tf were added to test wells to a final concentration from 7.5 to 30 ug/ml. Native Tf was added to control wells at 30 ug/ml. On day 2, media was changed to that without added Ce6-Tf or Tf. On days 2, 3, and 4, cells were exposed to light from an X-ray film box for 15 min. Media was changed each day. On day five, all cells were fixed, stained, and quantitated using the crystal violet stain assay. Stained cell numbers were evaluated using a Bio-Rad Multi-imager. Images of the stained plates are shown in A and B. The results of image analysis are shown in C and D, where ODU/mm2 correlates with cell number.
as §1
(§3) B: Serum-containing, one day exposure assays. For these, serum was maintained, to emulate in vivo conditions where excess endogenous normal transferrin would be present. In addition, the Ce6-Tf exposure was limited to I day to emulate a one time Ce6-Tf injection. Target cells were grown to confluence in 24 well plates. On the day of the assay, media in all wells was replaced with 1 ml of fresh serum-containing media and increasing levels of Ce6-Tf added to test wells. Native human holo-Tf was added, at the highest Ce6-Tf dose, to control wells. One day after Tf addition, media in all plates was changed to normal culture media (without Ce6Tf).
With both assay methods, two plates for each line to be tested were plated and treated identically. One day after Ce6-Tf addition, test plates were exposed to the light from an X-ray film box for 15 min.: the box was placed horizontally and the culture plates placed directly on the cover glass. The parallel plate from a given line was kept in the dark. The light treatment was repeated for 3 days. Media was changed (with [A] or without [B] added Ce6-Tf ) each day, to maintain cell viability. On the fourth day, the cells were quantitated using a crystal violet stain assay: wells were drained and washed 4 times with 2 ml PBS; cells were fixed with 1 ml 5% v/v glutaraldehyde (in PBS) at 25° C. for 20 min.; wells were washed 4 times with 2 ml distilled water and stained with 1 ml of a 1:1 (v:v) mixture of 0.2% (w/v) crystal violet and 100 mM CAPS (pH 9.0). Wells were drained and washed 4 times with 2 ml distilled water. After drying, cell density was determined using a Bio-Rad Multiimager, where ODU/mm2 correlates with cell number.
Effect of Ce6 alone: To determine if Ce6 alone, if added in appropriate concentrations, would induce cell death. […]

NRK cells = test: as above; type: cell-based, rat
Method: as §2, §3
(§4) With both assay methods, two plates for each line to be tested were plated and treated identically. […] On the fourth day, the cells were quantitated using a crystal violet stain assay: wells were drained and washed 4 times with 2 ml PBS; cells were fixed with 1 ml 5% v/v glutaraldehyde (in PBS) at 25° C. for 20 min.; wells were washed 4 times with 2 ml distilled water and stained with 1 ml of a 1:1 (v:v) mixture of 0.2% (w/v) crystal violet and 100 mM CAPS (pH 9.0). […] After drying, cell density was determined using a Bio-Rad Multiimager, where ODU/mm2 correlates with cell number.

transferrin receptor = target: T1, transferrin receptor (Rattus norvegicus, UniProt Q99376); test: Competition of FITC-Tf binding to cell surfaces (Western blot detection); details: competitor 1 mg/ml, FITC-Tf 100 μg/ml, 4° C., 2 h
T1 construct: endogenous in cells; host or cells: Rat MTLn3 mammary adenocarcinoma cells (intact monolayers at 4 °C)
Method: FIG. 4. Competition of FITC-Tf binding to cell surfaces by Ce6-Tf. Transferrin solvent, human Ce6-Tf, or native human Tf were added to Rat MTLn3 mammary adenocarcinoma cell monolayers equilibrated to 4° C. The final concentration of both transferrins was 1 mg/ml. FITC- human Tf was then added to all wells at 100 μg/ml. After a 2 h incubation, cells were washed, lysed, electrophoresed, blotted, and examined for FITC content by incubation with anti-FITC and an HRP-conjugated second antibody, followed by ECL. A strong band at 70,000 Kd was seen from cell lysates which received FITC-Tf only (lanes 4 and 5), indicating FITC-Tf binding to the cells. […] Lanes 1-3 were loaded with known amounts of pure FITC-Tf, for standardization. An image of the ECL X-ray film is shown.
Competition binding: This measures the ability of a material to inhibit the binding of FITC-transferrin to cell surfaces. FITC-Tf bound to the cells is detected by Western blotting of cell lysates and specific antibody-based detection of FITC in those. Rat MTLn3 mammary adenocarcinoma cells were grown to confluence in 12 well plates using media consisting of ocMM containing 5% v/v fetal bovine serun (FBS). […] Lysate protein was determined using the BCA assay (Pierce Chemical). […] The blot was blocked and FITC-TF was detected by treatment with rabbit anti-FITC then with anti-rabbit IG-HRP followed by ECL using an HRP substrate.

[3] = tested on: Human MCF7 breast cancer cells; test: Cell killing assay, protocol B (serum-containing, one-day exposure); type: cell-based; details: MCF7, 7.5 to 30 ug/ml
Method: FIG. 7. […] Cells were plated in 24 well plates and grown to confluency. On day one, media was changed and increasing levels of Ce6-Tf were added to test wells to a final concentration from 7.5 to 30 ug/ml. Native Tf was added to control wells at 30 ug/ml. On day 2, media in all wells was changed to that without added Ce6-Tf or Tf On days 2, 3, and 4, cells were exposed to light from an X-ray film box for 15 min. Media was changed each day. On day five, all cells were fixed, stained, and quantitated using the crystal violet stain assay. Stained cell numbers were evaluated using a Bio-Rad Multi-imager. Images of the stained plates are shown in A. The results of image analysis are shown in B, where ODU/mm2 correlates with cell number. […]
as §4

[4] = tested on: Rat MTLn3 mammary adenocarcinoma cells; test: Low serum growth assay; type: cell-based; details: αMEM 0.3% FBS, increasing levels of protein, four days
Method: FIG. 2. Effect of chorin e6 on the growth of Rat MTLn3 mammary adenocarcinoma cells. Cells were plated at 2,000 cells/well in 96 well plates in ∝MEM containing 5% FBS. One day after plating, media was changed to ∝MEM containing 0.3% FBS. Increasing levels of human holo-Tf (Native Tf) or human Ce6-Tf (both in PBS) were added to respective wells, in the amount indicated. Four days later, cells were quantitated using a crystal violet stain assay, where A590 correlates with cell number. A: an image of the crystal violet stained plate used in the assay is shown. B: A plot of the absorbances from A. Cell number and is seen to rise as the cells are exposed to increasing levels of native human Tf.
Growth assays: Rat MTLn3 mammary adenocarcinoma cells were plated at 2,000 cells/well in 96 well plates in ∝MEM containing 5% FBS. One day after plating, media was changed to ∝MEM containing 0.3% FBS. Increasing levels of human holo-Tf or human Ce6-Tf (both in PBS) were added to respective wells. Four days later, cells were quantitated using a crystal violet stain assay.

[5] = tested on: Rat MTLn3 mammary adenocarcinoma cells; test: Cell killing assay, protocol A (serum-free, continuous exposure); type: cell-based; details: 1.25 to 5.0 μg/ml
Method: FIG. 5. […] This was a continuous exposure, serum-free assay performed using protocol A described in the cell killing section. Cells were plated in 24 well plates and grown to confluency in ∝MEM containing 5% v/v FBS. On day one, media was changed to ∝MEM only and increasing levels of Ce6-Tf were added to test wells to a final concentration from 1.25 to 5.0 μg/ml. Native Tf was added to control wells at 5.0 μg/ml. On days 2, 3, and 4, cells were exposed to light from an X-ray film box for 15 min. Media and all Tf was changed each day. On day five, all cells were quantitated using the crystal violet stain assay. Images of the stained plates are shown in A. Stained cell numbers were evaluated using a Bio-Rad Multi-imager. The results of image analysis are shown in B, where ODU/mm2 correlates with cell number. […]
as §4

T1 sequence (Q99376 whole entry): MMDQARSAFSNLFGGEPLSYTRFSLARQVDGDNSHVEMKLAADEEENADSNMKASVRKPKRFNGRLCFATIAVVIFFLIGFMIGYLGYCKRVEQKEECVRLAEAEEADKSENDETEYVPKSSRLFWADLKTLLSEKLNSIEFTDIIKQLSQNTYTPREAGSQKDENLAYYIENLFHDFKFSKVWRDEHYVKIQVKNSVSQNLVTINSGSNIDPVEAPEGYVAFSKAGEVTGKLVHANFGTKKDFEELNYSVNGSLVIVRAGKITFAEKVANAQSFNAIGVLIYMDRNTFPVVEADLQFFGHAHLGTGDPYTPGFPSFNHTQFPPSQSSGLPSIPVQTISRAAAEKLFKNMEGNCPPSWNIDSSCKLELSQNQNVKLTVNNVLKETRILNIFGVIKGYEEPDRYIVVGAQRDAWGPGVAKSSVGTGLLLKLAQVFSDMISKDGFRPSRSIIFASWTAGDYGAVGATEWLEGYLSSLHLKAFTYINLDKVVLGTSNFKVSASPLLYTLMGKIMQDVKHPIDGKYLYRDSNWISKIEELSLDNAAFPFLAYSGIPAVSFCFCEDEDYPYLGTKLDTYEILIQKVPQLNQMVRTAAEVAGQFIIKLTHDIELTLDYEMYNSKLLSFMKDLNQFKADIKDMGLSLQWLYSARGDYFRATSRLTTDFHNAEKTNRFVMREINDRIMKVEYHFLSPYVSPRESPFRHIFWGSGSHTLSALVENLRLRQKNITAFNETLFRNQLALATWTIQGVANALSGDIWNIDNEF

## chlorin e6-transferrin [Ce6-Tf]
MTLn3 cells [1]
  Killing effect of Ce6-Tf in presence of excess native Tf: diminished the killing effect
MTLn3 cells [2]; MTLn3, 15 ug/ml, light
  Change in cell numbers at the 15 ug/ml dose with light: showed a decrease in cell numbers
MTLn3 cells [2]; MTLn3, 7.5 to 30 ug/ml, no light
  Cell numbers, plates maintained in the dark: no loss of cell numbers
MTLn3 cells [2]; MTLn3, 7.5 to 30 ug/ml, one-day exposure, light 15 min on days 2, 3, 4
  Cell killing with light exposure (cell number, ODU/mm2): light-dependent killing
MTLn3 cells [2]; initially present at 0.43 uM (30 ug/ml)
  Light-induced cell death: very active
NRK cells; 15 ug/ml, light
  Change in cell numbers at the 15 ug/ml dose with light: did not
NRK cells; 7.5 to 30 ug/ml, no light
  Cell numbers, plates maintained in the dark: no loss of cell numbers
NRK cells; 7.5 to 30 ug/ml, one-day exposure, light 15 min on days 2, 3, 4
  Cell killing with light exposure (cell number, ODU/mm2): light-dependent killing
Transferrin receptor
  Competition of FITC-Tf binding to cell surfaces: competed out the FITC-Tf
[3]; no light
  Cell numbers, plates kept in the dark: no loss of cell numbers
[3]; one-day exposure, light 15 min on days 2, 3, 4
  Cell killing with light exposure (cell number, ODU/mm2): light-dependent killing
[4]
  Effect on cell growth (cell number, crystal violet A590): similar, albeit slightly lower rise
[5]; light 15 min on days 2, 3, 4
  Cell killing with light exposure (cell number, ODU/mm2): light-dependent killing
[5]; no light
  Cell numbers, plates kept in the dark: no loss of cell numbers

## chlorin e6 [Ce6, reference compound]
MTLn3 cells [2]; MTLn3, method B, free Ce6 4.3 uM (2.5 μg/ml), light 15 min on three days
  Cell killing effect of Ce6 alone with light: no cell killing effect

## Native Tf: Un-conjugated iron-saturated human transferrin (Sigma Chemical), used as control
Transferrin receptor
  Competition of FITC-Tf binding to cell surfaces: competed out the FITC-Tf
[4]
  Effect on cell growth (cell number, crystal violet A590): seen to rise
